# Measured values taken from publication PMC11678426, “Phytochemical Study and In Vitro Antioxidant Activity of Helianthemum cinereum Along with Antitumor Activity of the Isolated trans-Tiliroside and Luteolin 4′-O-β-Xyloside” (Molecules, 2024).
# Values joined by “and” are separate entries in the source; they are usually repeats but may differ in a detail not shown here. Equal values may be shown once.
# Legend:
# [1] = DPPH radical scavenging capacity
# Protocol: Different concentrations of H. cinereum extract were prepared in methanol and aliquots of 100 μL were added to 3.5 mL of DPPH (Sigma-Aldrich, Steinheim, Germany) solution (30 μg/g in methanol). A blank consisting of DPPH solution without extract was prepared. All samples were kept in darkness for 15 min. Then, the absorbance was measured against a blank (Methanol) at 515 nm in a UV-Vis spectrophotometer (UV 1700, Shimadzu, Japan). The DPPH solution was daily prepared and the concentration was checked using a calibration curve obtained by preparation of serial concentrations (4, 8, 16, 32 and 64 μg/g). […] The obtained IC50 value is inversely proportional to the antioxidant activity.
# [2] = tested on: Mia PaCa-2 pancreatic cancer cell line; experiment: Cell viability by MTT assay, Mia PaCa-2; assay type: cell-based; conditions: Mia PaCa-2, MTT; for IC50: Homo sapiens, 72 h exposure
# Protocol: (§1) The immortalized human keratinocytes HaCaT cells were obtained from Cell Lines Services (Eppelheim, Germany). The A549 cell lines were acquired from the European Collection of Authenticated Cell Cultures (ECACC) and supplied by Sigma-Aldrich (St. Louis, MO, USA), the A375 cell lines were acquired from ATCC and supplied by LGC Standards (Barcelona, Spain), and Mia PaCa-2 and Panc-1 cell lines were kindly provided by Dr. Sónia Melo […], Porto, Portugal). […] Cells were cultured at 5% CO2 and at 37 °C. A stock solution was made by dissolving trans-tiliroside or luteolin 4'-O-β-xyloside in dimethyl sulfoxide (DMSO, Sigma-Aldrich, St. Louis, MO, USA). All cell lines were seeded in 96-well plates at a density of 12,500 cells/mL and incubated for 24 h for adhesion. […] After the exposure, cell viability was assessed by 3-(4,5-dimethyl-2-thiazolyl)-2,5-diphenyl-2H-tetrazolium bromide (MTT, Sigma-Aldrich, St. Louis, MO, USA) assay. Briefly, the exposure medium was replaced by fresh medium and 50 μL of MTT (1.0 mg/mL dissolved in phosphate-buffered saline, PBS, PAN-Biotech, Aidenbach, Germany) and plates were incubated for 3 h. Then, the medium was removed and 150 μL of DMSO was added and plates were shaken in the dark for 1 h. The absorbance was read in a microplate reader BioTek Synergy HT plate reader at 570 nm. Cells with only medium without compounds were used as control. Three independent assays were completed with three replicates each. Cell viability was further calculated using the Equation (3):(3) Cell Viability % of control=Sample Absorbance-Blank Absorbance/Control Absorbance-Blank Absorbance×100
# [3] = tested on: A375 melanoma cell line; experiment: Cell viability by MTT assay, A375; assay type: cell-based; conditions: for concentrations giving significant decrease in cell viability: 72 h
# Protocol: as §1
# [4] = tested on: IL-5; design: method as in PMID 10418337; conditions: from Kummerowia striata; cited from earlier work
# [5] = design: method as in doi:10.3390/app7040400; conditions: cited from earlier work
# [6] = ABTS radical scavenging assay
# Protocol: The ABTS radical scavenging activity of H. cinereum extracts was assessed according to the method described by. Firstly, 1 mL of ABTS (Sigma-Aldrich, Steinheim, Germany) stock solution (7 mM) was mixed with 88 μL of potassium persulfate solution (140 mM) and kept overnight protected from light and at room temperature. Next, the mixture was diluted with potassium buffer saline (0.2 M, pH 7.4) to obtain an ABTS solution with an absorbance of 0.70 ± 0.02 at 734 nm. […] The reaction took place in the dark for 6 min, and the absorbance at 734 nm was measured. Samples containing the same volume of methanol and the same dilution of ascorbic acid served as white and positive controls, respectively. […] A2 is the solvent and sample mixture absorbance and A0 is the absorbance of the solvent and ABTS radical mixture.
# [7] = tested on: Panc-1 pancreatic cancer cell line; experiment: Cell viability by MTT assay, Panc-1; assay type: cell-based; conditions: Panc-1, MTT
# Protocol: as §1, with “Then, the medium was removed and 150 μL of DMSO was added and plates were shaken in the dark for 1 h.” left out, “Cells with only medium without compounds were used as control. Three independent assays were completed with three replicates each.” left out
# [8] = tested on: A549 lung cancer cell line; experiment: Cell viability by MTT assay, A549; assay type: cell-based
# Protocol: as §1, with “Then, the medium was removed and 150 μL of DMSO was added and plates were shaken in the dark for 1 h.” left out, “Cells with only medium without compounds were used as control. Three independent assays were completed with three replicates each.” left out
# [9] = tested on: immortalized human keratinocytes HaCaT; experiment: Cell viability by MTT assay, HaCaT; assay type: cell-based; conditions: 72 h exposure
# Protocol: as §1, with “Then, the medium was removed and 150 μL of DMSO was added and plates were shaken in the dark for 1 h.” left out, “Cells with only medium without compounds were used as control. Three independent assays were completed with three replicates each.” left out
# [10] = tested on: Mia PaCa-2 cells; experiment: Cell cycle analysis by flow cytometry, Mia PaCa-2; assay type: cell-based; conditions: Mia PaCa-2, IC50 concentration (46.2 μM), 72 h
# Protocol: (§2) Cells were seeded in 12-well plates as described before. […] Then, cells were collected, washed with PBS, fixed with 85% ethanol and stored at −20 °C until analysis. For analysis, cells were washed, resuspended in PBS and filtered to Eppendorf tubes. Samples were incubated with 50 μL of RNAse (Sigma-Aldrich, St. Louis, MO, USA) for 10 min and next with 50 μL of propidium iodide (PI, ≥94%; Sigma-Aldrich, St. Louis, MO, USA) for 20 min. Cells were analyzed with an Attune® Acoustic Focusing Cytometer (Applied Biosystems, Termo Fischer Scientific, Agawam, MA, USA) and the percentages of cells at each phase of the cell cycle were determined using the FlowJo software V10.7.1 (FlowJo LLC, Ashland, OR, USA). Two independent assays with two replicates each were performed, with at least 5000 events.
# [11] = tested on: Panc-1 cells; experiment: Cell cycle analysis by flow cytometry, Panc-1; assay type: cell-based; conditions: Panc-1, IC50 concentration (54 μM), 72 h
# Protocol: as §2
# [12] = tested on: A549 cells; experiment: Cell cycle analysis by flow cytometry, A549; assay type: cell-based; conditions: A549, IC50 concentration (108 μM), 72 h
# Protocol: as §2
# [13] = tested on: A375 cells; experiment: Cell cycle analysis by flow cytometry, A375; assay type: cell-based; conditions: A375, IC50 concentration (102 μM), 72 h
# Protocol: as §2
# [14] = tested on: HaCaT cells; experiment: Cell cycle analysis by flow cytometry, HaCaT; assay type: cell-based, human; conditions: IC50 concentration (122 μM), 72 h
# Protocol: as §2
# [15] = tested on: Panc-1 cells; design: method as in PMID 38412575; conditions: 72 h of exposure; read-out: IC50 growth of Panc-1 cells; cited from earlier work
# [16] = tested on: B16-F10 cells, melanoma cell line; design: method as in earlier work; conditions: 168 μM, 72 h; ref 41 (Lu et al. 2009); cited from earlier work
# [17] = tested on: A549 cell line; design: method as in PMID 20589534, PMID 29393891; conditions: cited from earlier work
# [18] = tested on: pancreatic cancer cell lines; design: method as in PMID 26527884; conditions: cited from earlier work
smiles,measurement,setting,value
O=C1O[C@H]([C@@H](O)CO)C(O)=C1O [Ascorbic acid],DPPH (IC50),[1],3.36 ± 0.13 µg/g
"O=c1cc(-c2ccc(OC3OCC(O)C(O)C3O)c(O)c2)oc2cc(O)cc(O)c12 (stereo not drawn) [Luteolin 4′-O-β-xyloside, luteolin 4′-O-β-xyloside]",IC50,[2],229 ± 9.09 µM
same,concentrations giving significant decrease in cell viability,[3],up to 75 μM
"O=c1cc(-c2ccc(OC3OC(CO)C(O)C(O)C3O)c(O)c2)oc2cc(O)cc(O)c12 (stereo not drawn) [Luteolin 4′-O-glucoside, luteolin 4′-O-β-glucoside]",IL-5 inhibition,[4],IL-5 inhibitor
"COc1cc2c(=O)oc3c(OC)c(OS(=O)(=O)O)cc4c(=O)oc(c1OC)c2c34 [Compound 12, 3,3′,4′-tri-O-methyl-ellagic acid 4-sulfate]",cytotoxic effect,[5],cytotoxic effect
Cc1c(C)c2c(c(C)c1O)CCC(C)(C(=O)O)O2 (centres unmarked) [Trolox],DPPH (IC50),[1],12 ± 0.41 µg/mL
same,ABTS (IC50),[6],23.2 ± 0.54 µg/mL
"O=C(/C=C/c1ccc(O)cc1)OC[C@H]1O[C@@H](Oc2c(-c3ccc(O)cc3)oc3cc(O)cc(O)c3c2=O)[C@H](O)[C@@H](O)[C@@H]1O [trans-tiliroside, kaempferol-3-O-[6″-O-(E)-p-coumaroyl]-β-D-glucoside]",IC50,[2],46.2 ± 0.89 µM
same,concentrations affecting cell viability,[2]; 72 h,≥ 50 µM
same,IC50,"[7]; Homo sapiens, 72 h exposure",54 ± 1.95 µM
same,concentration causing decline of cell viability,[7]; 72 h,10 µM
same,concentrations giving significant decrease in cell viability,[8]; 72 h,≥ 75 µM
same,IC50,"[8]; Homo sapiens, 72 h exposure",108 ± 2.8 µM
same,concentrations giving significant decrease in cell viability,[3],≥ 75 µM
same,IC50,"[3]; Homo sapiens, A-375, 72 h exposure",102 ± 2.56 µM
same,IC50,[9],122 ± 1.8 µM
same,increase of cells at G2/M phase compared to the control,[10],3.9%
same,increase of cells at the S phase compared to the control,[10],5.6%
same,effect on cell cycle dynamics,[11],no alterations on the cell cycle dynamics
same,effect on cell cycle dynamics,[12],no alterations on the cell cycle dynamics
same,effect on cell cycle dynamics,[13],no alterations on the cell cycle dynamics
same,effect on cell cycle dynamics,[14],no alterations on the cell cycle dynamics
same,IC50,[15],68.5 µM
same,decline in the viability of B16-F10 cells,[16],80%
"O=c1cc(-c2ccc(O)c(O)c2)oc2cc(O)cc(O)c12 [luteolin aglycone, luteolin]",IC50,[17],32.6 µM and 40 µM
same,concentrations strongly affecting pancreatic cancer cell lines,[18],above 160 μM
